The values that follow come from US20230143612A1 (Arbutus Biopharma Corporation, priority 2020, published 2023).

Structures are written as SMILES.

The target in this test is PD-L1 His protein / PD-1 Fc protein (Homo sapiens, UniProt Q9NZQ7). Briefly: HTRF Assay (PD-1/PD-L1 interaction). It is filed as binding. As to conditions: PD-L1 His 6 nM, PD-1 Fc 6 nM. The method, boiled down: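 Compounds tested from 20 μM down to 0.001 μM (3-fold) against 6 nM PD-L1 His and 6 nM PD-1 Fc, 15 min room temperature incubation. Detection after 1 h at room temperature with Tb cryptate anti-6HIS and XL665 anti-human IgG reagents (mixture at 0.35 nM and 6.7 nM), HTRF signal.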
PD-L1 His protein / PD-1 Fc protein, sequence (Q9NZQ7 19-238 limits assumed): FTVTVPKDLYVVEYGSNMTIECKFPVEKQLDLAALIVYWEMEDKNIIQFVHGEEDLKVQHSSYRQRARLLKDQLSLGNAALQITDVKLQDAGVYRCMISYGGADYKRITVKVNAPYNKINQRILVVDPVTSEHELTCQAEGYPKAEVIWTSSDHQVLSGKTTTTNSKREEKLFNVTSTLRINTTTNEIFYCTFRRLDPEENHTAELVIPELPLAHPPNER
(In general: TR-FRET usually uses a lanthanide donor and a delayed reading to cut background.)
As for `COc1nc(-c2cccc(-c3cccc(-c4cc5ncc(CNC[C@@H]6CCC(=O)N6)cc5cn4)c3Cl)c2Cl)ccc1CNC[C@@H]1CCC(=O)N1` [Example 258, (S)-5-((((6-(2,2′-Dichloro-3′-(3-(((((S)-5-oxopyrrolidin-2-yl)methyl)amino)methyl)-1,6-naphthyridin-7-yl)-[1,1′-biphenyl]-3-yl)-2-methoxypyridin-3-yl)methyl)amino)methyl) pyrrolidin-2-one], the IC50 was determined as 0.1 nM.
The compound `COc1nc(-c2cccc(-c3cccc(-c4ccn5c(=O)c(CNC6CC7(CCNC7=O)C6)cnc5c4)c3Cl)c2Cl)ccc1CNC[C@@H]1CCC(=O)N1` (single isomer, unassigned) [Example 251] displayed an IC50 of 8.9 nM.
Regarding `COc1c(CNC[C@@H]2CCC(=O)N2)cc(Cl)c2nc(-c3cccc(-c4cccc(-c5ccn6c(=O)c(CNC[C@@H]7CCC(=O)N7)cnc6c5)c4Cl)c3Cl)ccc12` [Example 203, 8-[2-chloro-3-[2-Chloro-3-[8-chloro-5-methoxy-6-[[[(2S)-5-oxopyrrolidin-2-yl]methylamino]methyl]-2-quinolyl]phenyl]phenyl]-3-[[[(2S)-5-oxopyrrolidin-2-yl]methylamino]methyl] pyrido[1,2-a]pyrimidin-4-one], the IC50 was 150 nM.
Consider `COc1nc(-c2cccc(-c3cccc(-c4ccn5c(=O)c(CNC[C@@H]6CCC(=O)N6)cnc5c4)c3Cl)c2Cl)ccc1CN[C@H]1C[C@](C)(O)C1` [Example 142, 8-(2,2′-Dichloro-3′-(5-((((1r,3r)-3-hydroxy-3-methylcyclobutyl)amino)methyl)-6-methoxypyridin-2-yl)-[1,1′-biphenyl]-3-yl)-3-(((((S)-5-oxopyrrolidin-2-yl)methyl)amino)methyl)-4H-pyrido[1,2-a]pyrimidin-4-one], for which the IC50 is 1.7 nM.
The value for `Cc1c(-c2ccc3c(c2)CC(N)C3)cccc1-c1cccc(-c2ccn3c(=O)c(CNC[C@@H]4CCC(=O)N4)cnc3c2)c1C` (mixture of isomers) [Example 41, 8-(3′-(2-Amino-2,3-dihydro-1H-inden-5-yl)-2,2′-dimethyl-[1,1′-biphenyl]-3-yl)-3-(((((S)-5-oxopyrrolidin-2-yl)methyl)amino)methyl)-4H-pyrido[1,2-a]pyrimidin-4-one] was 93 nM.
The value for `COc1nc(-c2cccc(-c3cccc(-c4ccn5c(=O)c(CN6CC[C@H](C(=O)O)C6)cnc5c4)c3Cl)c2Cl)ccc1CNC[C@@H]1CCC(=O)N1` [Example 94, (S)-1-((8-(2,2′-Dichloro-3′-(6-methoxy-5-(((((S)-5-oxopyrrolidin-2-yl)methyl)amino)methyl)pyridin-2-yl)-[1,1′-biphenyl]-3-yl)-4-oxo-4H-pyrido[1,2-a]pyrimidin-3-yl)methyl)pyrrolidine-3-carboxylic acid] was 0.3 nM; that for `COc1cc(-c2cccc(-c3cccc(-c4cc5c(c(OC)c4)CN(C[C@@H]4CCC(=O)N4)CC5)c3Cl)c2Cl)cc2c1CN(C[C@@H]1CCC(=O)N1)CC2` [Example 394, (5S,5'S)-5,5′-((6,6′-(2,2′-Dichloro-[1,1′-biphenyl]-3,3′-diyl)bis(8-methoxy-3,4-dihydroisoquinoline-6,2(1H)-diyl))bis(methylene))bis(pyrrolidin-2-one)] was 71 nM; that for `COC(=O)C1CN(Cc2cnc3cc(-c4cccc(-c5cccc(-c6ccc(CNC[C@@H]7CCC(=O)N7)c(OC)n6)c5Cl)c4Cl)ncc3c2)C1` [Example 304, (S)-Methyl 1-((7-(2,2′-dichloro-3′-(6-methoxy-5-((((5-oxopyrrolidin-2-yl)methyl)amino)methyl)pyridin-2-yl)-[1,1′-biphenyl]-3-yl)-1,6-naphthyridin-3-yl)methyl)azetidine-3-carboxylate] was 0.2 nM.
`COc1nc(-c2cccc(-c3cccc(-c4cnc5c(N)c(CO)sc5c4)c3Cl)c2Cl)ccc1CNC[C@@H]1CCC(=O)N1` [Example 217, (S)-5-((((6-(3′-(3-Amino-2-(hydroxymethyl)-thieno[3,2-b]-pyridin-6-yl)-2,2′-dichloro-[1,1′-biphenyl]-3-yl)-2-methoxypyridin-3-yl)methyl)amino)methyl)pyrrolidin-2-one] yielded an IC50 of 3.5 nM.
Turning to `COc1nc(-c2cccc(-c3cccc(-c4ccc5oc(CNC[C@@H]6CCC(=O)N6)nc5c4)c3Cl)c2Cl)ccc1CNC[C@@H]1CCC(=O)N1` [Example 247, (S)-5-((((6-(2,2′-Dichloro-3′-(2-(((((S)-5-oxopyrrolidin-2-yl)methyl)amino)methyl)benzo[d]oxazol-5-yl)-[1,1′-biphenyl]-3-yl)-2-methoxypyridin-3-yl)methyl)amino)methyl)pyrrolidin-2-one], half-maximal inhibition (IC50) was put at 450 nM.
The value for `COc1nc(-c2cccc(-c3cccc(-c4cc(C)n5c(=O)c(CN[C@H]6C[C@@](C)(O)C6)cnc5c4)c3Cl)c2Cl)ccc1CNC[C@@H]1CCC(=O)N1` [Example 254, 8-(2,2′-Dichloro-3′-(6-methoxy-5-(((((S)-5-oxopyrrolidin-2-yl)methyl)amino)methyl)pyridin-2-yl)-[1,1′-biphenyl]-3-yl)-3-((((1s,3s)-3-hydroxy-3-methylcyclobutyl)amino)methyl)-6-methyl-4H-pyrido[1,2-a]pyrimidin-4-one] was 61 nM; that for `COC(=O)CNCc1c(C)nc2cc(-c3cccc(-c4cccc(-c5ccc(CNC[C@@H]6CCC(=O)N6)c(OC)n5)c4Cl)c3Cl)ccn2c1=O` [Example 269, (S)-Methyl 2-(((8-(2,2′-dichloro-3′-(6-methoxy-5-((((5-oxopyrrolidin-2-yl)methyl)amino)methyl)pyridin-2-yl)-[1,1′-biphenyl]-3-yl)-2-methyl-4-oxo-4H-pyrido[1,2-a]pyrimidin-3-yl)methyl)amino)acetate] was 1 nM; that for `COc1nc(-c2cccc(-c3cccc(-c4ccn5c(=O)c(CNC[C@@H](O)CC(N)=O)cnc5c4)c3Cl)c2Cl)ccc1CNC[C@@H]1CCC(=O)N1` [Example 238, (3S)-4-[[8-[2-chloro-3-[2-chloro-3-[6-methoxy-5-[[[(2S)-5-oxopyrrolidin-2-yl]methylamino]methyl]-2-pyridyl]phenyl]phenyl]-4-oxo-pyrido[1,2-a]pyrimidin-3-yl]methylamino]-3-hydroxy-butanamide] was 0.1 nM.
The value for `COc1nc(-c2cccc(-c3cccc(-c4ccn5c(=O)c(CN6CC[C@H](O)C6)cnc5c4)c3Cl)c2Cl)ccc1CN1CC[C@H](O)C1` [Example 165, 8-(2,2′-Dichloro-3′-(5-(((S)-3-hydroxypyrrolidin-1-yl)methyl)-6-methoxypyridin-2-yl)-[1,1′-biphenyl]-3-yl)-3-(((S)-3-hydroxypyrrolidin-1-yl)methyl)-4H-pyrido[1,2-a]pyrimidin-4-one] was 0.1 nM; that for `COc1ccc(CNCc2cnc3cc(-c4cccc(-c5cccc(-c6ccc(CNC[C@@H]7CCC(=O)N7)c(OC)n6)c5Cl)c4Cl)ccn3c2=O)c(OC)c1` [Example 138, (S)-8-(2,2′-Dichloro-3′-(6-methoxy-5-((((5-oxopyrrolidin-2-yl)methyl)amino)methyl)pyridin-2-yl)-[1,1′-biphenyl]-3-yl)-3-(((2,4-dimethoxybenzyl)amino)methyl)-4H-pyrido[1,2-a]pyrimidin-4-one] was 1.4 nM.

The IC50 is the point on the concentration scale where inhibition reaches its midpoint.
